Test results: patent publication US4897382A, “Organic amide compounds derived from nitrogenous lipids” (priority 1981, dated 1990)

Tests used:
[1] = background statement; cited from earlier work
[2] = GABA by itself; cited from earlier work
[3] = mice; cited from earlier work
[4] = Anticonvulsant effects in rat (isoniazide convulsions); format: in vivo
Protocol: The in vivo activity of Product 1 was measured by the method described by Costa et al (E. Costa, A. Guidotti and C. C. Mao; "Evidence for involvement of GABA in the Action of Benzodiazepines: Studies in Rat Cerebellum" in Mechanism of Action of Benzodiazepines; Ed. by E. Costa and P. Greengard, New York, Raven Press. pp. 113-130 (1975)) and by Loescher and Frey (Loesher, W. and Frey, H. H.; "Effect of convulsant and anticonvulsant agents on level and metabolism of gamma-aminobutyric acid in mouse brain"; Naunyn-Schmiedeberg's Arch. Pharmacol. 296, 263-269 (1977)). These tests are based on the known activity of isoniazide to cause convulsions and a lowering of the GABA cerebral levels and the glutamic-decarboxylase enzyme activity.

[5] = test system: synaptic membranes of the rat cortex; test: Binding of ^3H-GABA on synaptic membranes of the rat cortex (method of Enna and Snyder); conditions: for Product bound % (^3H-GABA binding on rat cortex membranes): ^3H-GABA 2.10^-8 M
Text: Table I presents the results of these tests, expressed in percentage of the fixed active product, comparing the in vitro activity of Product 1 with the activities of the individual components which comprise Product 1.

[6] = General pharmacological activity in vitro and in vivo; conditions: tested in vitro and in vivo in laboratory animals
[7] = isoniazide 160 mg/kg (s.c.) + GABA 8 mg/kg (i.p.)
[8] = test substance 10^-8 M, 0.01 µM
[9] = isoniazide 160 mg/kg (s.c.) + Product 1 20 mg/kg (i.p.)

| Compound | in vitro / in vivo activity, in words [1] | penetration of the encephalic barrier, in words [2] | effect when administered in vivo as measured by convulsion tests [3] | Latency of the convulsions measured [4, 7] [s] | Number of animals in convulsions [4, 7] | Number of dead animals [4, 7] | Product bound % (^3H-GABA binding on rat cortex membranes) ([5]; test substance 10^-4 M, 100 µM) [%] | Product bound % (^3H-GABA binding on rat cortex membranes) ([5]; test substance 10^-5 M, 10 µM) [%] | Product bound % (^3H-GABA binding on rat cortex membranes) ([5]; test substance 10^-6 M, 1 µM) [%] | Product bound % (^3H-GABA binding on rat cortex membranes) ([5]; test substance 10^-7 M, 0.1 µM) [%] | Product bound % (^3H-GABA binding on rat cortex membranes) [5, 8] [%] | in vitro biological activity (GABA binding), in words ([5]; summary of Table I) | action in the central nervous system, in words [6] | in vivo (anticonvulsant) activity, in words ([4]; compared to GABA or sphingosine alone) | Latency of the convulsions measured [4, 9] [s] | Number of animals in convulsions [4, 9] | Number of dead animals [4, 9] |
| --- | --- | --- | --- | --- | --- | --- | --- | --- | --- | --- | --- | --- | --- | --- | --- | --- | --- |
| NCCCC(=O)O [GABA, Gamma-aminobutyric acid] | active in vitro but relatively inactive in vivo | incapable, by itself, of penetrating the encephalic barrier | ineffective | 3100 ± 156 | 24/30 | 14 | 20 | 20 | 25 | 45 | 90 | activity comparable to that of Product 1 | – | – | – | – | – |
| CCCCCCCCCCCCCC=CC(O)C(CO)NC(=O)CCCN (stereo not shown) [Product 1, Gamma-aminobutyrylsphingosine amide] | – | – | – | – | – | – | 20 | 25 | 40 | 60 | 95 | – | capable of acting directly in the central nervous system | far superior in vivo activity as compared to GABA or sphingosine alone | 4500 ± 330 | 9/30 | 3 |
